Source: patent US8663616B2, “Enzymatic peracid generation for use in oral care products” (E I du Pont de Nemours and Company, priority 2010, dated 2014)

T1: Wild Type (SEQ ID NO: 16) (Thermotoga maritima, UniProt Q9WXT2)
T1 construct: made in house; host or cells: E. coli
T1 sequence (Q9WXT2 1-325): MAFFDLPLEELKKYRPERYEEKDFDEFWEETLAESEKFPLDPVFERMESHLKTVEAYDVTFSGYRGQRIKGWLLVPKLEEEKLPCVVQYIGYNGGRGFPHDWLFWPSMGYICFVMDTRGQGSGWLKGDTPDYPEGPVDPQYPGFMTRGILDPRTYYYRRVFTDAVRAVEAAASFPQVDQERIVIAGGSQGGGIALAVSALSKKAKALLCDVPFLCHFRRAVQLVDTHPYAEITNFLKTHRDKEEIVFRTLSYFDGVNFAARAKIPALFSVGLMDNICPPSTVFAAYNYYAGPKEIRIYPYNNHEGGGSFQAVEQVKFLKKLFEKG


Legend:
C277S (SEQ ID NO: 424) = biological target: T2, C277S (SEQ ID NO: 424) (Thermotoga maritima, UniProt Q9WXT2, C277S); format: biochemical; settings: 100 mM ester, 60 mM H2O2, 40 ppm enzyme, 95 mM phosphate pH 7.2, 37° C.
T2 construct: made in house; host or cells: E. coli
Protocol: (§1) To test various enzymes against an ester substrate, it was convenient to run up to 4 reactions simultaneously by staggering the beginning of each individual reaction by 0.5-1 min. Each individual reaction was performed in a glass vessel (height: 76 mm; o.d.: 33 mm; i.d.: 24 mm) equipped with a magnetic stirring bar. Four reaction vessels were banded together and kept at constant temperature in a jacketed one-liter, stainless steel, tempering beaker (KGW IsoTherm, # TSS-G 1000W) with circulating water controlled by a Thermo NesLab recirculation bath (Model # RTE-7 Digital One). Buffer (6 mL, 100 mM sodium phosphate buffer, pH 7.2) was added to each reaction vessel and allowed to equilibrate to 37° C. The ester substrate of interest was added to achieve 100 mM concentration. […] To follow the production of peracetic acid, 80 μL samples from each reaction were removed at specific intervals from 1 to 15 minutes. The sample was immediately quenched in a microfuge filter tube (NanoSep 30K VWR cat #82031-354) containing a volume and concentration of phosphoric acid solution that was sufficient to stop the enzymatic reaction (by lowering the pH between 2 and 3) and to dilute the sample for convenient HPLC analyses. The acid-quenched samples were centrifuged for 5 minutes to remove any particulates.

C277T (SEQ ID NO: 437) = biological target: T3, C277T (SEQ ID NO: 437) (Thermotoga maritima, UniProt Q9WXT2, C277T); format: biochemical; settings: 100 mM ester, 60 mM H2O2, 40 ppm enzyme, 95 mM phosphate pH 7.2, 37° C.
T3 construct: made in house; host or cells: E. coli
T3 sequence (Q9WXT2 whole entry C277T): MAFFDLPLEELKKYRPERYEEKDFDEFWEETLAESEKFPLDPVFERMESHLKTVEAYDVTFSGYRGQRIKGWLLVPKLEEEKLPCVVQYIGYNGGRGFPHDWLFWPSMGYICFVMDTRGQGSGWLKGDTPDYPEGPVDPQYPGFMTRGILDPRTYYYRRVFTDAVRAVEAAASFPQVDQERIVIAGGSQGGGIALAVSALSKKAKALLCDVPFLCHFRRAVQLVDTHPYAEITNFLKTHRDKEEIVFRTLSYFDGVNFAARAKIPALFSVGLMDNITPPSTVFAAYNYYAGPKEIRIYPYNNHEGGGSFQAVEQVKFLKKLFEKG
Protocol: as §1

[1] = biological target: T1, Wild Type (SEQ ID NO: 16); experiment: Maximum peracetic acid from ester substrates with wild type perhydrolase (Example 14); format: biochemical; settings: 100 mM ester, 60 mM H2O2, 40 ppm enzyme, 95 mM phosphate pH 7.2, 37° C.
Protocol: as §1

[2] = biological target: T4, C277T/R296P (SEQ ID NO: 476) (Thermotoga maritima, UniProt Q9WXT2, C277T/R296P); format: biochemical; settings: 100 mM ester, 60 mM H2O2, 40 ppm enzyme, 95 mM phosphate pH 7.2, 37° C.
T4 construct: made in house; host or cells: E. coli
T4 sequence (Q9WXT2 whole entry C277T/R296P): as the sequence (Q9WXT2 whole entry C277T) above, with R296P counted along it
Protocol: as §1

[3] = Two-step bleaching of coffee-tea stained bovine enamel (Example 16)
Protocol: Bovine enamel incisors were prepared as indicated in Example 1. The stained enamel blocks were embedded in a 48 well plate to protect the dentin backside from solution exposure. A solution of 10 μM of each enzyme in 10 mM phosphate buffer, pH 7.2 was prepared and 500 μL of solution was incubated with each enamel substrate for 60 min. The enzyme solution was removed and each well was rinsed three times with an additional 500 μL of buffer. The enamel blocks were placed in a fresh well for the whitening process. A solution with a final concentration of 40 mM triacetin, 100 mM H2O2 in 50 mM phosphate pH 7.2 buffer was freshly prepared and 500 μL of solution was added to each enamel block. Over the course of 1 hr the enamel blocks were removed and a color measurement was obtained and then each was returned to the solution in the well plate. The whiteness index for each sample was monitored.

[4] = Retention of perhydrolase on hydroxyapatite (SDS-PAGE band strength); format: binding; settings: relative to enzyme input = 1
Protocol: Perhydrolase enzymes listed in Table 6 were assessed for binding to hydroxyapatite. A dispersion of hydroxyapatite nanoparticles (Aldrich 677418) was made at 0.5% solids in 10 mM phosphate buffer at pH 7.2. Enzyme stock solution was added to the hydroxyapatite dispersion to a final concentration of 10 μM and incubated for 30 min in a microcentrifuge tube with gentle agitation. Each sample was centrifuged for 5 min at 10000 rpm. The supernatant was removed and additional buffer was added. The particles were resuspended and transferred to a new tube. The process was repeated two additional times. Samples of the original input of enzyme, the supernatant removed from the particles with each wash step and the final particles were prepared for SDS-PAGE analysis by combining 60 μL of sample, 20 μL of LDS buffer and 8 μL of reducing agent (Nu-PAGE). Samples were heated at 85° C. for 10 min. 25 μL of each sample was loaded on a 4-12% BisTris gel (Invitrogen) and run at 115 volts for 1.5 h. The gel was removed and stained with a 1:1 dilution of Simply Blue stain (Invitrogen) overnight and destained for 4 h in deionized water. The gel was analyzed and detection of enzyme in each fraction was estimated based on the presence of a band. The results of the analysis are provided in Table 7 with an indication of the relative strength of each band in the gel compared to the enzyme input (input=1) to determine the strength of binding between the hydroxyapatite surface and each enzyme.

Row | Molecule | Maximum Peracetic Acid (PAA) (ppm), C277S (SEQ ID NO: 424) (C277S (SEQ ID NO: 424)) [ppm] | Maximum Peracetic Acid (PAA) (ppm), C277T (SEQ ID NO: 437) (C277T (SEQ ID NO: 437)) [ppm] | Maximum Peracetic Acid (PAA) (ppm), Wild Type (SEQ ID NO: 16) [1] [ppm] | Maximum Peracetic Acid (PAA) (ppm), C277T/R296P (SEQ ID NO: 476) [2] [ppm] | further results
1 | CC(=O)OC1OC[C@@H](OC(C)=O)[C@@H](OC(C)=O)[C@H]1OC(C)=O (stereo partly drawn) [1,2,3,4-tetra-O-acetyl-ribopyranose] | 3525 | 3361 | 2278 | 3503 | 
2 | CC(=O)OC[C@H]1OC(OC(C)=O)[C@H](OC(C)=O)[C@@H]1OC(C)=O (stereo partly drawn) [1,2,3,5-tetra-O-acetyl-ribofuranose] | 3397 | 3472 | 2828 | 3270 | 
3 | CC(=O)OC[C@H]1OC(OC(C)=O)[C@@H](O)[C@@H](OC(C)=O)[C@@H]1OC(C)=O (stereo partly drawn) [1,3,4,6-tetra-O-acetyl-mannopyranose] | 3593 | 3436 | 2361 |  | 
4 | CC(=O)OCCCCCOC(C)=O [1,5-pentanediol diacetate] | 335 | 484 | 435 | 364 | 
5 | CC(=O)OC[C@H]1O[C@@H](S)[C@H](OC(C)=O)[C@@H](OC(C)=O)[C@@H]1OC(C)=O [1-thio-β-D glucose-2,3,4,6-tetraacetate] | 0 | 171 | 156 | 147 | 
6 | CC(=O)N[C@@H]1[C@@H](OC(C)=O)[C@H](OC(C)=O)[C@@H](COC(C)=O)O[C@@H]1Cl [2-acetamido-2-deoxy-3,4,6 triacetyl-1-chloride-α-D-glucopyranose] | 863 | 899 | 548 | 876 | 
7 | C=CC(COC(C)=O)OC(C)=O (stereo not drawn) [3,4-diacetoxy-1-butene] | 2281 | 2285 | 1692 | 2478 | 
8 | CC(=O)Oc1ccc(C(=O)O)cc1 [4-acetoxybenzoic acid] | 604 | 426 | 398 | 485 | 
9 | CC(=O)OCc1ccc(C=O)o1 [5-acetoxymethyl-2-furaldehyde] | 1185 | 1125 | 778 | 1136 | 
10 | CC(=O)OCC(O)COC(C)=O [Diacetin] | 1013 | 1132 | 1160 | 1087 | 
11 | CC(=O)OCCOCCOC(C)=O [Diethylene glycol diacetate] | 469 | 653 | 424 | 530 | 
12 | CC(=O)OCCOC(C)=O [Ethylene glycol diacetate] | 1007 | 1059 | 794 | 1020 | 
13 | COCC(C)OC(C)=O (stereo not drawn) [Propylene glycol methyl ether acetate] | 173 | 197 | 177 | 181 | 
14 | CC(=O)OC[C@H](OC(C)=O)[C@@H](OC(C)=O)[C@H](OC(C)=O)[C@@H](COC(C)=O)OC(C)=O [Sorbitol hexaacetate] | 712 | 705 | 381 | 616 | 
15 | CC(=O)OC[C@H]1OC=C[C@@H](OC(C)=O)[C@@H]1OC(C)=O [Tri-O-acetyl glucal] | 1047 | 1319 | 729 | 1034 | 
16 | CC(=O)OC[C@H]1O[C@H](OC(C)=O)[C@@H](OC(C)=O)[C@@H](OC(C)=O)[C@@H]1OC(C)=O [α-D-mannopyranose pentaacetate] | 4017 | 4212 | 4023 | 3752 | 
17 | CC(=O)OC[C@H]1O[C@@H](OC(C)=O)[C@H](OC(C)=O)[C@@H](OC(C)=O)[C@H]1OC(C)=O [β-D-galactose pentaacetate] | 2539 | 2546 | 764 | 1947 | 
18 | CC(=O)O[C@@H]1O[C@H](CO)[C@@H](OC(C)=O)[C@H](OC(C)=O)[C@H]1OC(C)=O [β-D-glucopyranose,1,2,3,4-tetraacetate] | 2309 | 2225 | 2129 | 2235 | 
19 | CO[C@@H]1OC[C@@H](OC(C)=O)[C@H](OC(C)=O)[C@H]1OC(C)=O [β-methyl xyloside triacetin] | 3856 | 3635 |  |  | 
20 | EZ-4: C277S-link1-(GK)5, SEQ ID NO: 427 (protein) MAFFDLPLEELKKYRPERYEEKDFDEFWEETLAESEKFPLDPVFERMESHLKTVEAYDVTFSGYRGQRIKGWLLVPKLEEEKLPCVVQYIGYNGGRGFPHDWLFWPSMGYICFVMDTRGQGSGWLKGDTPDYPEGPVDPQYPGFMTRGILDPRTYYYRRVFTDAVRAVEAAASFPQVDQERIVIAGGSQGGGIALAVSALSKKAKALLCDVPFLCHFRRAVQLVDTHPYAEITNFLKTHRDKEEIVFRTLSYFDGVNFAARAKIPALFSVGLMDNISPPSTVFAAYNYYAGPKEIRIYPYNNHEGGGSFQAVEQVKFLKKLFEKGGPGSGGAGSPGSAGGPGSGKGKGKGKGK |  |  |  |  | Whiteness Index 0 min ([3]; two-step: 10 μM enzyme 60 min, rinsed, then 40 mM triacetin, 100 mM H2O2, pH 7.2, before step 2): −158.9; ΔWI ([3]; two-step, 0 to 60 min): 69.4; Whiteness Index 5 min ([3]; two-step, 5 min in triacetin/H2O2): −143.6; Whiteness Index 15 min ([3]; two-step, 15 min in triacetin/H2O2): −149.5; Whiteness Index 30 min ([3]; two-step, 30 min in triacetin/H2O2): −129.4; Whiteness Index 45 min ([3]; two-step, 45 min in triacetin/H2O2): −106.5; Whiteness Index 60 min ([3]; two-step, 60 min in triacetin/H2O2): −89.5; Unbound (relative band strength) ([4]; 10 μM enzyme, 0.5% hydroxyapatite, pH 7.2): 0.5; HAP Particles (relative band strength) ([4]; enzyme retained on particles after washes): 0.4; Wash1 (relative band strength) [4]: 0.05; Wash2 (relative band strength) [4]: 0.05
